Test results taken from US8802597B2, “Herbicidal pyrimidines” (E I du Pont de Nemours and Company, priority 2003, dated 2014).
Read-outs that look alike come from different tables or passages of the source.

Legend:
Assay in all cases: Test C pre/postemergence
Type in all cases: in vivo
[1] = test system: Surinam grass (Brachiaria decumbens); conditions: Urochloa decumbens; for pest or weed control at 125 g/ha: 125 g ai/ha; for pest or weed control at 16 g/ha: 16 g ai/ha; for pest or weed control at 31 g/ha: 31 g ai/ha; for pest or weed control at 62 g/ha: 62 g ai/ha
How it was run: (§1)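 Visual injury ratings, 0 (no effect) to 100 (complete control), made 12 to 14 days after treatment by comparison with untreated controls. Greenhouse plants received test chemical in a surfactant-containing non-phytotoxic solvent, either preemergence on planted seeds or postemergence at the 1- to 4-leaf stage.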

[2] = test system: common (oilseed) sunflower (Helianthus annuus); conditions: Helianthus annuus, pre-emergence, Preemergence, read-out: Plant response rating, Sunflower
How it was run: as §1

[3] = test system: common ragweed (Ambrosia elatior); conditions: Ambrosia artemisiifolia; for pest or weed control at 16 g/ha: 16 g ai/ha; for pest or weed control at 31 g/ha: 31 g ai/ha; for pest or weed control at 62 g/ha: 62 g ai/ha; for pest or weed control at 125 g/ha: 125 g ai/ha
How it was run: as §1

[4] = test system: giant foxtail (Setaria faberii); conditions: Setaria faberi; for pest or weed control at 125 g/ha: 125 g ai/ha; for pest or weed control at 16 g/ha: 16 g ai/ha; for pest or weed control at 31 g/ha: 31 g ai/ha; for pest or weed control at 62 g/ha: 62 g ai/ha
How it was run: as §1

[5] = test system: johnsongrass (Sorghum halepense); conditions: Sorghum halepense; for pest or weed control at 16 g/ha: 16 g ai/ha; for pest or weed control at 31 g/ha: 31 g ai/ha; for pest or weed control at 62 g/ha: 62 g ai/ha; for pest or weed control at 125 g/ha: 125 g ai/ha
How it was run: as §1

[6] = test system: kochia (Kochia scoparia); conditions: Bassia scoparia; for pest or weed control at 16 g/ha: 16 g ai/ha; for pest or weed control at 31 g/ha: 31 g ai/ha; for pest or weed control at 62 g/ha: 62 g ai/ha
How it was run: as §1

[7] = post-emergence, Postemergence, scale 0 to 100 (0 no effect, 100 complete control), read-out: Surinam Grass plant response rating
[8] = post-emergence, Postemergence, read-out: Plant response rating (scale of 0 to 100), Surinam Grass
[9] = pre-emergence, Preemergence, scale 0 to 100, 0 no effect, 100 complete control, read-out: Plant response rating, Surinam Grass
[10] = post-emergence, Postemergence, read-out: Plant response rating (scale of 0 to 100), Ragweed
[11] = post-emergence, Postemergence, scale 0 to 100 (0 no effect, 100 complete control), read-out: Ragweed plant response rating
[12] = pre-emergence, Preemergence, scale 0 to 100, 0 no effect, 100 complete control, read-out: Plant response rating, Ragweed
[13] = post-emergence, Postemergence, scale 0 to 100 (0 no effect, 100 complete control), read-out: Foxtail, Giant plant response rating
[14] = post-emergence, Postemergence, read-out: Plant response rating (scale of 0 to 100), Foxtail, Giant
[15] = pre-emergence, Preemergence, scale 0 to 100, 0 no effect, 100 complete control, read-out: Plant response rating, Foxtail, Giant
[16] = post-emergence, Postemergence, read-out: Plant response rating (scale of 0 to 100), Johnsongrass
[17] = post-emergence, Postemergence, scale 0 to 100 (0 no effect, 100 complete control), read-out: Johnsongrass plant response rating
[18] = pre-emergence, Preemergence, scale 0 to 100, 0 no effect, 100 complete control, read-out: Plant response rating, Johnsongrass
[19] = post-emergence, Postemergence, read-out: Plant response rating (scale of 0 to 100), Kochia
[20] = pre-emergence, Preemergence, scale 0 to 100, 0 no effect, 100 complete control, read-out: Plant response rating, Kochia

Question: `COC(=O)c1nc(C2CC2)nc(N)c1F` [Compound 25] was tested. Which pest or weed control at 125 g/ha [1, 7] did it give?
Answer: 5%

Question: And the pest or weed control at 16 g/ha [1, 8]?
Answer: 0%

Question: And the pest or weed control at 31 g/ha [1, 8]?
Answer: 0%

Question: What about the pest or weed control at 62 g/ha [1, 7] of the same compound?
Answer: 0%

Question: And the pest or weed control at 16 g/ha [1, 9]?
Answer: 0%

Question: And the pest or weed control at 31 g/ha [1, 9]?
Answer: 0%

Question: What about the pest or weed control at 62 g/ha [1, 9] of the same compound?
Answer: 0%

Question: And the pest or weed control at 125 g/ha ([1]; pre-emergence, Preemergence, scale 0 to 100, read-out: Plant response rating, Surinam Grass)?
Answer: 40%

Question: And the pest or weed control at 16 g/ha ([2]; 16 g ai/ha, scale 0 to 100, 0 no effect, 100 complete control)?
Answer: 5%

Question: What about the pest or weed control at 31 g/ha ([2]; 31 g ai/ha, scale 0 to 100, 0 no effect, 100 complete control) of the same compound?
Answer: 60%

Question: What about the pest or weed control at 62 g/ha ([2]; 62 g ai/ha, scale 0 to 100, 0 no effect, 100 complete control) of the same compound?
Answer: 75%

Question: And the pest or weed control at 125 g/ha ([2]; 125 g ai/ha, scale 0 to 100)?
Answer: 90%

Question: And the pest or weed control at 16 g/ha [3, 10]?
Answer: 40%

Question: And the pest or weed control at 31 g/ha [3, 10]?
Answer: 50%

Question: And the pest or weed control at 62 g/ha [3, 11]?
Answer: 65%

Question: And the pest or weed control at 125 g/ha [3, 11]?
Answer: 70%

Question: And the pest or weed control at 16 g/ha [3, 12]?
Answer: 0%

Question: And the pest or weed control at 31 g/ha [3, 12]?
Answer: 70%

Question: And the pest or weed control at 62 g/ha [3, 12]?
Answer: 70%

Question: And the pest or weed control at 125 g/ha ([3]; pre-emergence, Preemergence, scale 0 to 100, read-out: Plant response rating, Ragweed)?
Answer: 85%

Question: And the pest or weed control at 125 g/ha [4, 13]?
Answer: 30%

Question: What about the pest or weed control at 16 g/ha [4, 14] of the same compound?
Answer: 0%

Question: And the pest or weed control at 31 g/ha [4, 14]?
Answer: 0%

Question: And the pest or weed control at 62 g/ha [4, 13]?
Answer: 5%

Question: What about the pest or weed control at 16 g/ha [4, 15] of the same compound?
Answer: 0%

Question: What about the pest or weed control at 31 g/ha [4, 15] of the same compound?
Answer: 0%

Question: And the pest or weed control at 62 g/ha [4, 15]?
Answer: 0%

Question: What about the pest or weed control at 125 g/ha ([4]; pre-emergence, Preemergence, scale 0 to 100, read-out: Plant response rating, Foxtail, Giant) of the same compound?
Answer: 0%

Question: And the pest or weed control at 16 g/ha [5, 16]?
Answer: 0%

Question: What about the pest or weed control at 31 g/ha [5, 16] of the same compound?
Answer: 10%

Question: And the pest or weed control at 62 g/ha [5, 17]?
Answer: 10%

Question: What about the pest or weed control at 125 g/ha [5, 17] of the same compound?
Answer: 20%

Question: What about the pest or weed control at 16 g/ha [5, 18] of the same compound?
Answer: 0%

Question: And the pest or weed control at 31 g/ha [5, 18]?
Answer: 0%

Question: What about the pest or weed control at 62 g/ha [5, 18] of the same compound?
Answer: 0%

Question: And the pest or weed control at 125 g/ha ([5]; pre-emergence, Preemergence, scale 0 to 100, read-out: Plant response rating, Johnsongrass)?
Answer: 0%

Question: And the pest or weed control at 16 g/ha [6, 19]?
Answer: 10%

Question: And the pest or weed control at 31 g/ha [6, 19]?
Answer: 80%

Question: What about the pest or weed control at 62 g/ha ([6]; post-emergence, Postemergence, scale 0 to 100 (0 no effect, 100 complete control), read-out: Kochia plant response rating) of the same compound?
Answer: 85%

Question: What about the pest or weed control at 125 g/ha ([6]; post-emergence, Postemergence, 125 g ai/ha, scale 0 to 100 (0 no effect, 100 complete control), read-out: Kochia plant response rating) of the same compound?
Answer: 85%

Question: And the pest or weed control at 16 g/ha [6, 20]?
Answer: 0%

Question: What about the pest or weed control at 31 g/ha [6, 20] of the same compound?
Answer: 0%

Question: What about the pest or weed control at 62 g/ha [6, 20] of the same compound?
Answer: 5%
